Results as given in US20130165475A1, “DEUTERIUM-ENRICHED HETEROCYCLIC COMPOUNDS AS KINASE INHIBITORS” (ASCEPION PHARMACEUTICALS, INC., priority 2010, published 2013).
Counter-ions that a name gives are not always drawn.

Experiments:
PDGFRβ = target: T1, PDGFRβ (Homo sapiens, UniProt P09619); assay: PDGFRβ cell-based assay (ELISA, phosphor-/total PDGFRβ in transfected CHO cells); details: compound at 100 nM; CHO cells transfected with full length PDGFRβ; FBS stimulation; read-out: % PDGFRβ kinase activity remains
T1 construct: expressed in transfected cells; host or cells: CHO cells
T1 sequence (P09619 33-1106): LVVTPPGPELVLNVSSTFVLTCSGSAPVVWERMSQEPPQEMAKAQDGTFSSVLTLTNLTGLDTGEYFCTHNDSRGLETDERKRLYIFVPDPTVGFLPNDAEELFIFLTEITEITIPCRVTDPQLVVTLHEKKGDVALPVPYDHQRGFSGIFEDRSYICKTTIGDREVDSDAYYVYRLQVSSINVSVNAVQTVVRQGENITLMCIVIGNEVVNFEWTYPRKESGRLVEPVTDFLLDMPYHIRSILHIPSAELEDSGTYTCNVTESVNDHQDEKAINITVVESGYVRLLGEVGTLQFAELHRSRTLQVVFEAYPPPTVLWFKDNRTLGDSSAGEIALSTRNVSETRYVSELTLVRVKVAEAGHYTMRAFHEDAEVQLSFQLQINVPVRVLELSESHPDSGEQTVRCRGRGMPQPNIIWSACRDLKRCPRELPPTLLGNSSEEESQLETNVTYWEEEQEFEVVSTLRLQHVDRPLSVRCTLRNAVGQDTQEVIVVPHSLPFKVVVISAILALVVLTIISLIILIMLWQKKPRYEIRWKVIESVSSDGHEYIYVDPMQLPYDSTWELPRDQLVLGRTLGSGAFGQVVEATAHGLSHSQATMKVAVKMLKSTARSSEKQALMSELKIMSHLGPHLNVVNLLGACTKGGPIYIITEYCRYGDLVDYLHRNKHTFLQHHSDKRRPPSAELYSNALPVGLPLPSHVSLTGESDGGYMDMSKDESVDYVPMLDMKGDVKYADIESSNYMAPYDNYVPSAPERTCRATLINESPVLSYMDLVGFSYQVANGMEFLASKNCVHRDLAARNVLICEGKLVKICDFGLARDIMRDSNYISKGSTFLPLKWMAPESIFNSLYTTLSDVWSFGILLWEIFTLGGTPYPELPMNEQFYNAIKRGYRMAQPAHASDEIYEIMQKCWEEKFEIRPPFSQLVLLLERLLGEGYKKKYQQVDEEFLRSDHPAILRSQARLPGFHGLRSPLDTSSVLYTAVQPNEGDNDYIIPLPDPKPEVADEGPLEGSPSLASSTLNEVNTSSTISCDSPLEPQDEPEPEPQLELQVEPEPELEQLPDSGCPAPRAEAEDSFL
Description: A standard cell-based assay for PDGFRβ kinase activity can be used to test or screen the compounds of this invention and to identify PDGFRβ antagonists. In this example, ELISA kits (R&D Systems, Inc., Minneapolis, Minn. 55413, USA) were used.
The activity of PDGFRβ in cells depended on its autophosphorylation level by various factors including growth factors. In order to induce the cell to produce PDGFRβ, full length of PDGFRβ sequence was cloned into PC-DNA3.1 vector, the plasmid was then transfected into CHO cells. After 48 hours, the expression of PDGFRβ in transfected CHO cells was confirmed by regular western blotting.
A compound to be tested was first dissolved in DMSO to a concentration of 10 mM and stored at −20° C. One day before the screening, CHO cells transfected with full length PDGFRβ plasmid were grown in DMEM medium without the presence of serum. On the day of screening procedure, the compounds with various concentration in DMSO (from 0.5 nM to 500 nM) were added into DMEM medium, two hours later, 20% of FBS (Fetal Bovine Serum) was added into the medium to stimulate the production of phosphor-PDGFRβ. Cell lysate from approximately 5×10^5 transfected CHO cells were reacted with anti-phosphor PDGFRβ or anti-total PDGFRβ antibody in 96 well plates, in the presence of detection antibody. The phosphor-PDGFRβ or total PDGFRβ were detected with Streptavidin-HRP (R&D Systems), followed by chemiluminescent detection. The level of PDGFRβ kinase activity was quantified as the ratio between the amount of phosphor- and that of total PDGFRβ proteins.

EphB4 = target: T2, EphB4 (Homo sapiens, UniProt P54760); assay: EphB4 cell-based assay (quantitative Western blotting, PC-3 cells, Ephrin-B2 stimulated); details: compound at 100 nM; PC-3 human prostate cancer cells; Ephrin-B2 stimulation; read-out: % EphB4 kinase activity remains
T2 construct: EphB4 autophosphorylation in PC-3 human prostate cancer cells; host or cells: PC-3 human prostate cancer cells
T2 sequence (P54760 16-987): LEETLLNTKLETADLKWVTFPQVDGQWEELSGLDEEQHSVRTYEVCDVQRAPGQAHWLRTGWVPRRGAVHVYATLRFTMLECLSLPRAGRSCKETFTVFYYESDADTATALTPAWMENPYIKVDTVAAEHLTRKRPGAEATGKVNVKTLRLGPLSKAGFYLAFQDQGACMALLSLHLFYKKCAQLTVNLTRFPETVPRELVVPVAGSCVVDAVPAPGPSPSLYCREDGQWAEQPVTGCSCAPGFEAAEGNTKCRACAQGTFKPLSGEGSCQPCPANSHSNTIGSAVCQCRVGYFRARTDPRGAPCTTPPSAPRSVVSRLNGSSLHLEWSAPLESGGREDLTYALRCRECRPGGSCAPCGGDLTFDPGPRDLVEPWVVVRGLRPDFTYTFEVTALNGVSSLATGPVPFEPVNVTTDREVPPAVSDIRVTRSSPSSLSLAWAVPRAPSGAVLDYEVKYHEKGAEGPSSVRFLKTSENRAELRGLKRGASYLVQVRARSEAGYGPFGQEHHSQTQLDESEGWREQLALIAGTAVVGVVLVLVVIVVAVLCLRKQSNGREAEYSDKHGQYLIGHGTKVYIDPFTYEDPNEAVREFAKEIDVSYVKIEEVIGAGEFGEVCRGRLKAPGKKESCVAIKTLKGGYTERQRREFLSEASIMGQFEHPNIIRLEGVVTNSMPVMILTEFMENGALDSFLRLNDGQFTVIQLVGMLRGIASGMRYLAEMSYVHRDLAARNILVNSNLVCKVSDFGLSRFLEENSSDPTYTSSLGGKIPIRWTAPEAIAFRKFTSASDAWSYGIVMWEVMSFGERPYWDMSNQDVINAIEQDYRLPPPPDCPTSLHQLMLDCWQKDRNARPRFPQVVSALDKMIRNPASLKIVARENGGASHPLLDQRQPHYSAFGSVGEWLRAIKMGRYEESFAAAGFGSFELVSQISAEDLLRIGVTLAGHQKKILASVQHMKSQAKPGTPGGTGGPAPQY
Description: A standard image-based quantitative Western blotting assay for EphB4 kinase activity can be used to test or screen the compounds of this invention and to identify EphB4 antagonists.
The kinase activity of EphB4 in cells depends on its autophosphorylation level stimulated by the binding to its ligand Ephrin-B2. High level of EphB4 autophosphorylation in PC-3 human prostate cancer cells (ATCC, USA) induced by the application of Ephrin-B2 to the cell culture can be observed by regular Western blotting assay.
A compound to be tested was first dissolved in DMSO to a concentration of 10 mM and stored at −20° C. On the day of screening procedure, the compound in DMSO was added into DMEM medium to a final concentration of 100 nM. Two hours later, Ephrin-B2 ([…]) was added into DMEM medium to stimulate the production of phosphor-EphB4. The phosphor-EphB4 was detected based on its molecular weight and with anti-phosphor protein antibody PY-20 in cell lysate from approximately 5×10^5 PC-3 cells by Western blotting followed by imaging quantification. The relative level of EphB4 kinase activity was quantified as the ratio between the amount of phosphor-EphB4 and that of total Actin proteins.

Rat liver microsome = assay: Liver microsomal stability assay, rat; assay type: in vitro ADME; design: key: A: the percentage of a compound remains is greater than that of its deuterium non-enriched counterpart; B: a result otherwise; details: 40 μM, 37° C., 30 min, 1 mg/ml microsome proteins; class relative to deuterium non-enriched counterpart
Procedure: A standard liver microsomal stability assay can be used to test or screen the compounds of this invention and to identify compounds with enhanced metabolic stability due to the enrichment of deuterium in the compounds. Liver microsome proteins prepared from different species such as mouse and rat were obtained from a commercial source (Research Institute for Liver Diseases, Shanghai, China). The assay was conducted in 1.5% potassium hydrogenphosphate (K2HPO4) in the presence of liver microsome proteins at 1 mg/ml and supplemented with an […] (3.3 mM NADPH, 3.3 mM glucose-6-phosphate, 6 units/ml G6PDase, and 3.3 mM magnesium chloride). Test compound was added into the assay mixture to a final concentration of 40 μM and incubated at 37° C. for 0 or 30 minutes. The reaction was stopped by the addition of 20 μM Bifonazole/CAN. Samples were then centrifuged at 14000 rpm for 10 minutes to precipitate proteins. Supernatant were then transferred to microcentrifuge tubes and subject to reverse phase HPLC analysis to determine the concentration of test compound.
The percentage of compounds that remained in the assay reactions after a thirty-minute incubation at 37° C. is calculated as the ratio between the amount of compound remained after a thirty-minute and that after a zero-minute incubation.

| Structure (SMILES) | remaining activity at 0.1 µM (PDGFRβ) | remaining activity at 0.1 µM (EphB4) | % of compound remained at the 30th minutes, Rat liver microsome (Rat liver microsome) |
| --- | --- | --- | --- |
| [2H]C(c1c[nH]c2ncccc12)N1CCc2c(NC(=O)Nc3cccc(C)c3)cccc21 (stereo not drawn) [Example 21, 1-[1-[Deuterio(1H-pyrrolo[2,3-b]pyridin-3-yl)methyl]indolin-4-yl]-3-(m-tolyl)urea] | < 70% | ≥ 70% | A |
| [2H]C(c1c[nH]c2ncccc12)n1ccc2c(NC(=O)Nc3cccc(C)c3)cccc21 (stereo not drawn) [Example 22, 1-[1-[deuterio(1H-pyrrolo[2,3-b]pyridin-3-yl)methyl]indol-4-yl]-3-(m-tolyl)urea] | < 70% | ≥ 70% | B |
| [2H]C([2H])([2H])Oc1ccc(Cl)cc1NC(=O)Nc1cccc2c1CCN2C([2H])([2H])c1ccnc(N)c1 [Example 3, 1-[1-[(2-Amino-4-pyridyl)-dideuteriomethyl]indolin-4-yl]-3-[5-chloro-2-(trideuteriomethoxy)phenyl]urea] | ≥ 70% | < 70% | A |
| Cl.[2H]C([2H])([2H])Oc1ccc(Cl)cc1NC(=O)Nc1cccc2c1ccn2C([2H])([2H])c1ccnc2[nH]ccc12 [Example 8, 1-[5-chloro-2-(trideuteriomethoxy)phenyl]-3-[1-[dideuterio(1H-pyrrolo[2,3-b]pyridin-4-yl)methyl]indol-4-yl]urea hydrochloride] | < 70% | ≥ 70% | A |
| [2H]C(c1c[nH]c2ncccc12)N1CCc2c(NC(=O)Nc3cc(Cl)ccc3OC([2H])([2H])[2H])cccc21 (stereo not drawn) [Example 15, 1-[5-Chloro-2-(trideuteriomethoxy)phenyl]-3-[1-[deuterio(1H-pyrrolo[2,3-b]pyridin-3-yl)methyl]indolin-4-yl]urea] | ≥ 70% | ≥ 70% | A |
| [2H]C([2H])([2H])Oc1ccc(Cl)cc1NC(=O)Nc1cccc2c1ccn2Cc1ccnc(N)c1 [Example 6, 1-[1-[(2-amino-4-pyridyl)methyl]indol-4-yl]-3-[5-chloro-2-(trideuteriomethoxy)phenyl]urea] | < 70% | < 70% | A |
| [2H]C([2H])(c1ccnc2[nH]ccc12)N1CCc2c(NC(=O)Nc3cc(Cl)ccc3OC)cccc21 [Example 9, 1-(5-Chloro-2-methoxyphenyl)-3-[1-[dideuterio(1H-pyrrolo[2,3-b]pyridin-4-yl)methyl]indolin-4-yl]urea hydrochloride] | < 70% | ≥ 70% | A |
| [2H]C(c1c[nH]c2ncccc12)n1ccc2c(NC(=O)Nc3cc(Cl)ccc3F)cccc21 (stereo not drawn) [Example 20, 1-(5-chloro-2-fluorophenyl)-3-[1-[deuterio(1H-pyrrolo[2,3-b]pyridin-3-yl)methyl]indol-4-yl]urea] | < 70% | ≥ 70% | A |
| [2H]C([2H])([2H])Oc1ccc(Cl)cc1NC(=O)Nc1cccc2c1CCN2Cc1ccnc(N)c1 [Example 5, 1-[1-[(2-Amino-4-pyridyl)methyl]indolin-4-yl]-3-[5-chloro-2-(trideuteriomethoxy)phenyl]urea] | < 70% | < 70% | A |
| [2H]C([2H])(c1ccnc2[nH]ccc12)n1ccc2c(NC(=O)Nc3cccc(C)c3)cccc21 [Example 14, 1-[1-[dideuterio(1H-pyrrolo[2,3-b]pyridin-4-yl)methyl]indol-4-yl]-3-(m-tolyl)urea hydrochloride] | < 70% | < 70% | A |
| [2H]C([2H])(c1ccnc2[nH]ccc12)n1ccc2c(NC(=O)Nc3cc(Cl)ccc3F)cccc21 [Example 12, 1-(5-chloro-2-fluorophenyl)-3-[1-[dideuterio(1H-pyrrolo[2,3-b]pyridin-4-yl)methyl]indol-4-yl]urea hydrochloride] | ≥ 70% | < 70% | A |
| [2H]C(c1c[nH]c2ncccc12)n1ccc2c(NC(=O)Nc3cc(Cl)ccc3OC([2H])([2H])[2H])cccc21 (stereo not drawn) [Example 16, 1-[5-chloro-2-(trideuteriomethoxy)phenyl]-3-[1-[deuterio(1H-pyrrolo[2,3-b]pyridin-3-yl)methyl]indol-4-yl]urea] | ≥ 70% | ≥ 70% | A |
| [2H]C(c1c[nH]c2ncccc12)N1CCc2c(NC(=O)Nc3cc(Cl)ccc3OC)cccc21 (stereo not drawn) [Example 17, 1-(5-Chloro-2-methoxyphenyl)-3-[1-[deuterio(1H-pyrrolo[2,3-b]pyridin-3-yl)methyl]indolin-4-yl]urea] | < 70% | < 70% | A |
| [2H]C(c1c[nH]c2ncccc12)n1ccc2c(NC(=O)Nc3cc(Cl)ccc3OC)cccc21 (stereo not drawn) [Example 18, 1-(5-chloro-2-methoxyphenyl)-3-[1-[deuterio(1H-pyrrolo[2,3-b]pyridin-3-yl)methyl]indol-4-yl]urea] | < 70% | < 70% | A |
